Data: paper PMC10458307, “New Scaffolds of Proteasome Inhibitors: Boosting Anticancer Potential by Exploiting the Synergy of In Silico and In Vitro Methodologies” (Pharmaceuticals, 2023)
“And” between values parts separate entries of the source, which are not always exact repeats. Equal values may be shown once. Read-outs that look alike come from different tables or passages of the source.

Key:
[1] = Cell viability, MTT assay, HCT116; type: cell-based, human; details: human, HCT116 colorectal carcinoma cells; for viability at 72 h, 10 µM: at 10 µM, read-out: percentage of cell viability, MTT, HCT-116; for viability at 72 h, 100 µM: at 100 µM, read-out: percentage of cell viability, MTT, HCT116
Procedure: (§1) Whenever possible, additional concentrations were tested and IC50 values were determined.
(§2) Human leukemia Jurkat E6.1 T-cell line and K562-cell line were originally obtained from ATCC Collections (Manassas, VA, USA); human HT-29 and HCT116 colorectal carcinoma-cell lines were obtained from ECACC (Porton Down, Porton, UK). Cells were passaged for less than 6 months after and routinely tested for mycoplasma contamination using Mycoalert detection kit (Lonza, Basel, Switzerland). Jurkat, K562, and HT-29 cells were maintained in Roswell Park Memorial Institute (RPMI) 1640 with GlutaMAX™, supplemented with 1% antibiotic mixture (100 µg/mL streptomycin and 100 U/mL penicillin) and 10% heat-inactivated foetal bovine serum (FBS) (all from Gibco, Thermo Fisher Scientific, Paisley, UK). HCT116 cells were maintained in Dulbecco’s Modified Eagle Medium (DMEM) with GlutaMAX™, supplemented with 1% antibiotic mixture (100 µg/mL streptomycin and 100 U/mL penicillin) and 10% heat-inactivated FBS (all from Gibco, Thermo Fisher Scientific, Paisley, UK). Incubation was performed at 37 °C in a 5% CO2 atmosphere. Cells were routinely passaged every 2 or 3 days at 70–90% confluence; TrypLE Express (Gibco, Thermo Fisher Scientific, Paisley, UK) was used as dissociation agent for adherent cells. Trypan blue (Gibco, Thermo Fisher Scientific, Paisley, UK) was used to assess cell viability using the dye exclusion test.
(§3) To assess cell viability, the MTT assay was performed. Jurkat/K562/HT-29/HCT116 cell lines were seeded in triplicate (10,000 cells/well) in 96-well plates with 50 µL of complete medium and incubated at 37 °C, 5% CO2 for 24 h to allow the cells to adhere to the plate (in the case of adherent cells). […] Untreated cells seeded in triplicate were used as control. The blank was performed in triplicate with 100 µL of culture medium. The cells were incubated with the compounds, in triplicate, in 100 µL of total volume, at 37 °C, 5% CO2 for 72 h. […] In suspension cells (Jurkat), 25 µL of MTT were directly added to each well and, after 3 h 30 m of incubation, 100 µL of DMSO were added to solubilize the formazan crystals; in adherent cells (HT-29 and HCT116), the culture medium was removed, 25 µL of MTT were added to each well and, after 3 h 30 m of incubation, upon MTT removal, 100 µL of DMSO were added to solubilize the formazan crystals. After 15 min, the samples absorbance was measured at 570 nm and the percentage of cell viability was determined.

HCT116 cells = test: Cell viability, MTT assay, HCT116; type: cell-based, human; details: 72 h; for IC50: Homo sapiens, HCT-116, mean ± SD; for percentage of cell viability, MTT, HCT116: at 100 µM
Procedure: as §1, §2, §3

[2] = target: T1, isolated human 20S proteasome, CT-L activity (Homo sapiens, UniProt P20618+P28074); test: Proteasome inhibition assay in isolated human 20S proteasomes (Proteasome-Glo), CT-L activity; type: biochemical; details: for inhibition at 10 µM: read-out: percentage of proteasome inhibition, CT-L, isolated 20S proteasome; for percentage of proteasome inhibition, CT-L, isolated human 20S proteasome: at 100 µM, Table 1 legend: bortezomib positive control 10 µM
T1 construct: human purified erythrocyte-derived 20S proteasome; purchased Enzo Life Sciences, Inc; host or cells: human erythrocytes (natural source)
Description: In this assay, the peptide substrates are bound to aminoluciferin (Suc-LLVY-AML for CT-L activity, Z-nLPnLD-AML for C-L, and Z-LRR-AML for T-L), leading the cleavage of these substrates by the proteasome to the release of free aminoluciferin, which is the substrate of the buffer-contained luciferase.
To evaluate human purified erythrocyte-derived 20S proteasome inhibitory activity of the chosen compounds, the Proteasome-Glo™ 3-substrate system (Promega Corporation, Madison, WI, USA) was employed. The Proteasome-Glo™ reagents of the three proteolytic activities were prepared according to the manufacturer’s instructions, aliquoted, and stored at either −20 °C or 4 °C, avoiding freezing–thaw cycles. […] The purified 20S proteasome (Enzo Life Sciences, Inc., Farmingdale, NY, USA) was diluted in HEPES buffer 10 mM, pH 7.4, to a concentration experimentally adjusted to the signal/noise ratio obtained with each particular lot of Proteasome-Glo™ reagent, in order to have a good compromise between sensitivity and linear response. […] All assays were performed in white-walled multiwell plates (Thermo Scientific™ Sterilin™ White Microtiter™ plates, Thermo Fisher Scientific, Paisley, UK) in duplicates. The proteasome solution (25 μL) was added to each well first, then the diluted solutions of the assayed compounds (25 μL), and lastly the Proteasome-Glo™ Reagent (50 μL). […] Reagents were added to the plate well on ice, and the plate was then transferred to the plate luminometer (SpectraMax®, Molecular Devices, LLC, San Jose, CA, USA) set at 37 °C, gently mixed for 30 s, and the measurements were immediately started in kinetic mode, with data collected every 5 min for at least 60 min.
All compounds were dissolved in DMSO at a concentration of 10 mM and stored at −20 °C or 4 °C. Solutions of the test compounds were prepared at their adequate dilutions in 10 mM HEPES buffer pH 7.6 before each experiment.
To calculate the proteasome activity over time, the value of mean relative luminescence units (RLU) of blank wells at each respective time point was subtracted, and then the ratio between mean RLU of the sample and mean RLU of the positive control wells was calculated for each time point and expressed as percentage.

[3] = target: T2, 20S proteasome in HT-29 cell lysates, C-L activity (Homo sapiens, UniProt P28072); test: Proteasome inhibition assay in cell lysates, HT-29, C-L; details: for inhibition at 10 µM: read-out: percentage of proteasome inhibition, C-L, cell lysates HT-29, at 10 µM; for inhibition at 100 µM: read-out: percentage of proteasome inhibition, C-L, cell lysates HT-29, at 100 µM
T2 sequence (P28072 35-239 limits assumed): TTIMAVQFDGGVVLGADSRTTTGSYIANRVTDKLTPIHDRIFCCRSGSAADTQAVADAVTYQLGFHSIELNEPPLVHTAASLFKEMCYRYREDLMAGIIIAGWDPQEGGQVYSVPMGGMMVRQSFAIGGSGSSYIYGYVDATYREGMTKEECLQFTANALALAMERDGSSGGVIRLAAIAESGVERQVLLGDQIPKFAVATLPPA
T2 sequence (Q99436 44-277 partner): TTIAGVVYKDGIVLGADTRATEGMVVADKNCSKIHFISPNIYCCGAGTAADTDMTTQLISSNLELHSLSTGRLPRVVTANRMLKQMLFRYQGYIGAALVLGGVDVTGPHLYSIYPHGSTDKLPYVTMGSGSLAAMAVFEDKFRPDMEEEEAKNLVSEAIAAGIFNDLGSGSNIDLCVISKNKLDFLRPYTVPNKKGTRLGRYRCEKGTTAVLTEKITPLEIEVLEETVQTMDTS
Procedure: (§4) Cells were obtained from several cultured cell lines: Jurkat, K562, HT-29, and HCT116. Pellets with 20 × 10^6 cells were prepared and washed with cold sterile phosphate buffered saline (PBS), 1×, pH 7.4 (Gibco, Thermo Fisher Scientific, Paisley, UK). […] Cells were resuspended in buffer containing 50 mM TRIS-HCl pH 7.4 (Nzytech, Lisboa, Portugal), 5 mM MgCl2 (≥98% purity, Merck, Hamburg, Germany), 1 mM DTT (Merck, Hamburg, Germany), 2 mM ATP (≥98% purity, Enzo Life Sciences Inc., Farmingdale, NY, USA), and 250 mM saccharose (Merck, Hamburg, Germany). Glass beads (Merck, Hamburg, Germany) equivalent to the volume of the cell suspension were added, and the mixture was vortexed for 2 min at 4 °C. Beads and cell debris were removed using 5 min centrifugation at 1000× g and 4 °C, followed by 20 min of centrifugation at 10,000× g at 4 °C. Cell lysates containing proteasomes were resuspended in “activity buffer” [50 mM TRIS-HCl (pH 7.4), 5 mM MgCl2, 1 mM DTT, 2 mM ATP (≥98% purity, Enzo Life Sciences Inc., Farmingdale, NY, USA), and 500 µM EDTA (≥98% purity, Merck, Hamburg, Germany)]. Protein concentration was determined using the Pierce™ BCA protocol (Thermo Fisher Scientific, Rockford, IL, USA). […] DMSO was added in an equal volume as used for the untreated compounds as a way to assess/control its influence in the assay. Untreated cells were used as control. In each well of a 96-well plate, 25 µL of lysate were seeded in duplicate with 25 µL of the compound to test; in the control, 25 µL of activity buffer were added to the 25 µL of lysate. A blank (50 µL of activity buffer) was added to the wells in quadruplicate. Cell lysates, pre-treated or not with different concentrations of the test compounds, were incubated for 30 min at 37 °C. […] Stock solutions (10 mM) of each substrate were prepared in DMSO, diluted in activity buffer, and 50 µL were added to all wells (final concentration of each substrate = 100 µM), followed by an incubation at 37 °C for 60 min. Samples fluorescence was measured at an excitation wavelength of 360 nm and emission of 465 nm; the fluorescence measures were performed using the GloMax-Multi + Detection System (Promega Corp., Madison, WI, USA). Activity was evaluated in fluorescence units, after being converted to percentage of proteasome inhibition and, whenever possible, expressed as IC50 by plotting the inhibition data of each compound at different concentrations against the log of the concentration of the inhibitor, using the GraphPad Prism software version 7. At least eight different concentrations of the test compounds were used.

[4] = target: T3, 20S proteasome in HCT116 cell lysates, C-L activity (Homo sapiens, UniProt P28072); test: Proteasome inhibition assay in cell lysates, HCT116, C-L; details: for percentage of proteasome inhibition, C-L, cell lysates HCT116: at 100 µM; for percentage of proteasome inhibition, C-L, cell lysates HCT116 / inhibition at 100 µM: Table 2 legend: bortezomib 10 µM, NI = No inhibition; for inhibition at 100 µM: read-out: percentage of proteasome inhibition, C-L, cell lysates HCT116, at 100 µM; for inhibition at 10 µM: read-out: percentage of proteasome inhibition, C-L, cell lysates HCT-116, at 10 µM
T3 sequence (P28072 35-239 limits assumed): T2 sequence (P28072 35-239 limits assumed)
T3 sequence (Q99436 44-277 partner): T2 sequence (Q99436 44-277 partner)
Procedure: as §4

[5] = mean ± SD, read-out: IC50, CT-L, isolated human 20S proteasome
[6] = at 100 µM, Table 2 legend: bortezomib 10 µM
[7] = Table 2 legend: bortezomib 10 µM

SMILES	viability at 72 h, 10 µM [1]	viability at 72 h, 100 µM [1]	IC50 (HCT116 cells)	inhibition at 10 µM ([2]; at 10 µM)	percentage of proteasome inhibition, CT-L, isolated human 20S proteasome [2]	IC50 [2, 5]	IC50 [3]	percentage of proteasome inhibition, C-L, cell lysates HT-29 [3, 6]	inhibition at 10 µM [3]	inhibition at 100 µM [3, 7]	IC50 [4]	percentage of proteasome inhibition, C-L, cell lysates HCT116 [4]	inhibition at 100 µM [4]	inhibition at 10 µM [4]	percentage of cell viability, MTT, HCT116 (HCT116 cells)	IC50 [2]	inhibition at 10 µM [2]	percentage of proteasome inhibition, C-L, cell lysates HT-29 ([3]; at 10 µM)	percentage of proteasome inhibition, C-L, cell lysates HCT-116 ([4]; at 10 µM)
C#CCCN1CCN(c2ccc(-n3c(=O)ccc4cnc5ccc(-c6ccc(N)nc6)cc5c43)cc2C(F)(F)F)CC1 [Compound 4, 9-(6-Aminopyridin-3-yl)-1-(4-(4-(but-3-yn-1-yl)piperazin-1-yl)-3-(trifluoromethyl)phenyl)benzo[h][1,6]naphthyridin-2(1H)-one]	38.4%	0%	1.02 µM	3.3%	69.90% and 70%	51.1 µM	35.2 µM	82%	0%	82.1%	28.9 µM	90%	90.1%	69.2%	–	–	–	–	–
Cc1ccc(/C(=N/NS(=O)(=O)c2ccc([N+](=O)[O-])cc2)Sc2cc(Cl)c(C)cc2S(N)(=O)=O)cc1 [Compound 3]	100%	95.2%	–	–	91.40% and 91%	–	–	19%	0%	18.6%	–	–	0%	0%	95%	49.3 µM	8.2%	–	–
Cc1ccc2ccccc2c1CSc1ncnc2c1ncn2C1OC(CO)C(O)C1O (stereo not shown) [Compound 1]	95.5%	24%	65.7 µM	0%	37.72% and 38%	–	79.4 µM	76%	0%	76%	75.6 µM	71%	71.2%	0%	–	–	–	–	–
CC(C)C[C@H](NC(=O)[C@H](Cc1ccccc1)NC(=O)c1cnccn1)B(O)O [Bortezomib, bortezomib, reference compound]	0%	0%	0.0107 µM	91%	99.92% and 100%	–	–	99.05% and 99%	–	–	–	99%	–	–	–	–	–	92.93%	94.21%
CC(C)c1nc(CN(C)C(=O)N[C@@H](CCN2CCOCC2)C(=O)N[C@H](CC[C@H](Cc2ccccc2)NC(=O)OCc2cncs2)Cc2ccccc2)cs1 [Compound 5, cobicistat, reference compound]	98.7%	23.7%	58.4 µM	2.85%	35.60% and 36%	–	–	29%	0%	29.3%	–	28%	28.1%	0%	24%	–	–	–	–
O=C1c2ccccc2C(=O)c2c(Nc3ccc(S(=O)(=O)N(CCO)CCO)cc3)ccc(O)c21 [Compound 2]	98%	89.1%	–	81.3%	98%	5.6 µM	62.1 µM	69%	6.78%	69.2%	43.5 µM	74%	74.1%	11.1%	89%	–	–	–	–
